Values quoted from earlier work in patent US9125936B2, “Ginger extract for the protection of stem cells” (Symrise AG, priority 2013, dated 2015).

Settings: water (20° dH) at 20° C.; solid active agent

solubility in water: less than 5 g/L
SMILES: Nc1nc2c(ncn2COCCO)c(=O)[nH]1 [Acyclovir, 2-Amino-1,9-dihydro-9-((2-hydroxyethoxy)methyl)-6H-Purin-6-one]
